Legend:
SW-620 = assay: Growth inhibition of human SW620 cells incubated for 48 hrs by sulforhodamine B assay; assay type: functional; conditions: SW-620, 48 h
NCI-H460 = assay: Growth inhibition of human NCI-H460 cells incubated for 48 hrs by sulforhodamine B assay; assay type: functional; conditions: NCI-H460, 48 h
U-251 = assay: Growth inhibition of human U251 cells incubated for 48 hrs by sulforhodamine B assay; assay type: functional; conditions: U-251, 48 h
SNB-19 = assay: Growth inhibition of human SNB19 cells incubated for 48 hrs by sulforhodamine B assay; assay type: functional; conditions: SNB-19, 48 h
NCI-H226 = assay: Growth inhibition of human NCI-H226 cells incubated for 48 hrs by sulforhodamine B assay; assay type: functional; conditions: NCI-H226, 48 h
PC-3 = assay: Growth inhibition of human PC3 cells incubated for 48 hrs by sulforhodamine B assay; assay type: functional; conditions: PC-3, 48 h
UACC-257 = assay: Growth inhibition of human UACC257 cells incubated for 48 hrs by sulforhodamine B assay; assay type: functional; conditions: UACC-257, 48 h
ACHN = assay: Growth inhibition of human ACHN cells incubated for 48 hrs by sulforhodamine B assay; assay type: functional
OVCAR-8 = assay: Growth inhibition of human OVCAR8 cells incubated for 48 hrs by sulforhodamine B assay; assay type: functional; conditions: OVCAR-8, 48 h
HCT-116 = assay: Growth inhibition of human HCT116 cells incubated for 48 hrs by sulforhodamine B assay; assay type: functional; conditions: HCT-116, 48 h
K562 = assay: Growth inhibition of human K562 cells incubated for 48 hrs by sulforhodamine B assay; assay type: functional; conditions: K562, 48 h
UACC-62 = assay: Growth inhibition of human UACC62 cells incubated for 48 hrs by sulforhodamine B assay; assay type: functional; conditions: UACC-62, 48 h
TK-10 = assay: Growth inhibition of human TK10 cells incubated for 48 hrs by sulforhodamine B assay; assay type: functional; conditions: TK-10, 48 h
SK-MEL-5 = assay: Growth inhibition of human SK-MEL-5 cells incubated for 48 hrs by sulforhodamine B assay; assay type: functional; conditions: SK-MEL-5, 48 h
OVCAR-3 = assay: Growth inhibition of human OVCAR3 cells incubated for 48 hrs by sulforhodamine B assay; assay type: functional; conditions: OVCAR-3, 48 h
RPMI-8226 = assay: Growth inhibition of human RPMI8226 cells incubated for 48 hrs by sulforhodamine B assay; assay type: functional; conditions: RPMI-8226, 48 h
SK-MEL-2 = assay: Growth inhibition of human SK-MEL-2 cells incubated for 48 hrs by sulforhodamine B assay; assay type: functional; conditions: SK-MEL-2, 48 h
WISH = assay: Cytotoxicity against human WISH cells assessed as reduction in cell viability after 24 hrs by MTT assay; assay type: cell-based
[1] = Growth inhibition of human NCI60 cells at 10 uM after 48 hrs by SRB assay relative to control; values are per cent of control; conditions: NCI60, 48 h
SK-MEL-28 = assay: Growth inhibition of human SK-MEL-28 cells incubated for 48 hrs by sulforhodamine B assay; assay type: functional; conditions: SK-MEL-28, 48 h
NCI/ADR-RES = assay: Growth inhibition of human NCI/ADR-RES cells incubated for 48 hrs by sulforhodamine B assay; assay type: functional
MDA-MB-468 = assay: Growth inhibition of human MDA-MB-468 cells incubated for 48 hrs by sulforhodamine B assay; assay type: functional; conditions: MDA-MB-468, 48 h
T47D = assay: Growth inhibition of human T47D cells incubated for 48 hrs by sulforhodamine B assay; assay type: functional
Escherichia coli = assay: Induction of Escherichia coli genomic DNA cleavage after 1 hr by agarose gel electrophoresis method
LOX IMVI = assay: Growth inhibition of human LOXIMVI cells incubated for 48 hrs by sulforhodamine B assay; assay type: functional
KM12 = assay: Growth inhibition of human KM12 cells incubated for 48 hrs by sulforhodamine B assay; assay type: functional; conditions: KM12, 48 h
HCC 2998 = assay: Growth inhibition of human HCC2998 cells incubated for 48 hrs by sulforhodamine B assay; assay type: functional; conditions: HCC 2998, 48 h
SK-OV-3 = assay: Growth inhibition of human SKOV3 cells incubated for 48 hrs by sulforhodamine B assay; assay type: functional; conditions: SK-OV-3, 48 h
WI-38 = assay: Cytotoxicity against human WI38 cells assessed as reduction in cell viability after 24 hrs by MTT assay; assay type: cell-based; conditions: WI-38, 24 h
NCI-H23 = assay: Growth inhibition of human NCI-H23 cells incubated for 48 hrs by sulforhodamine B assay; assay type: functional; conditions: NCI-H23, 48 h
Hs-578T = assay: Growth inhibition of human Hs 578T cells incubated for 48 hrs by sulforhodamine B assay; assay type: functional
MOLT-4 = assay: Growth inhibition of human MOLT4 cells incubated for 48 hrs by sulforhodamine B assay; assay type: functional; conditions: MOLT-4, 48 h
MDA-MB-435 = assay: Growth inhibition of human MDA-MB-435 cells incubated for 48 hrs by sulforhodamine B assay; assay type: functional; conditions: MDA-MB-435, 48 h
HOP-62 = assay: Growth inhibition of human HOP62 cells incubated for 48 hrs by sulforhodamine B assay; assay type: functional; conditions: HOP-62, 48 h
A549 = assay: Growth inhibition of human A549/ATCC cells incubated for 48 hrs by sulforhodamine B assay; assay type: functional; conditions: A549, 48 h
HCT-15 = assay: Growth inhibition of human HCT15 cells incubated for 48 hrs by sulforhodamine B assay; assay type: functional; conditions: HCT-15, 48 h
SF-295 = assay: Growth inhibition of human SF295 cells incubated for 48 hrs by sulforhodamine B assay; assay type: functional; conditions: SF-295, 48 h
Homo sapiens = species: Homo sapiens; assay: Inhibition of PTK in human MCF7 cells at 1 uM preincubated for 2 hrs followed by poly-Glu-Tyr substrate addition by ELISA relative to control; assay type: cell-based
M14 = assay: Growth inhibition of human M14 cells incubated for 48 hrs by sulforhodamine B assay; assay type: functional; conditions: M14, 48 h
BT-549 = assay: Growth inhibition of human BT549 cells incubated for 48 hrs by sulforhodamine B assay; assay type: functional; conditions: BT-549, 48 h
CAKI-1 = assay: Growth inhibition of human Caki1 cells incubated for 48 hrs by sulforhodamine B assay; assay type: functional; conditions: CAKI-1, 48 h
SF-268 = assay: Growth inhibition of human SF268 cells incubated for 48 hrs by sulforhodamine B assay; assay type: functional; conditions: SF-268, 48 h
HOP-92 = assay: Growth inhibition of human HOP92 cells incubated for 48 hrs by sulforhodamine B assay; assay type: functional; conditions: HOP-92, 48 h
SR = assay: Growth inhibition of human SR cells incubated for 48 hrs by sulforhodamine B assay; assay type: functional
HT-29 = assay: Growth inhibition of human HT-29 cells incubated for 48 hrs by sulforhodamine B assay; assay type: functional; conditions: HT-29, 48 h
786-0 = assay: Growth inhibition of human 786-O cells incubated for 48 hrs by sulforhodamine B assay; assay type: functional; conditions: 786-0, 48 h
SF-539 = assay: Growth inhibition of human SF539 cells incubated for 48 hrs by sulforhodamine B assay; assay type: functional; conditions: SF-539, 48 h
CCRF-CEM = assay: Growth inhibition of human CCRF-CEM cells incubated for 48 hrs by sulforhodamine B assay; assay type: functional
[2] = Antioxidant activity assessed as superoxide dismutase-like activity by measuring inhibition of superoxide radical anion production at 2 uM by NBT reduction assay relative to control; assay type: functional
HL-60(TB) = assay: Growth inhibition of human HL-60(TB) cells incubated for 48 hrs by sulforhodamine B assay; assay type: functional; conditions: HL-60, 48 h
NCI-H522 = assay: Growth inhibition of human NCI-H522 cells incubated for 48 hrs by sulforhodamine B assay; assay type: functional; conditions: NCI-H522, 48 h
MCF7 = assay: Growth inhibition of human MCF7 cells incubated for 48 hrs by sulforhodamine B assay; assay type: functional; conditions: MCF7, 48 h
DU-145 = assay: Growth inhibition of human DU145 cells incubated for 48 hrs by sulforhodamine B assay; assay type: functional; conditions: DU-145, 48 h
SN12C = assay: Growth inhibition of human SN12C cells incubated for 48 hrs by sulforhodamine B assay; assay type: functional
COLO 205 = assay: Growth inhibition of human COLO205 cells incubated for 48 hrs by sulforhodamine B assay; assay type: functional; conditions: COLO 205, 48 h

SMILES: N=C(N)c1ccc(-c2ccc(-c3cc(Cl)cc(Cl)c3)s2)cc1
- GI50 (SW-620): 0.318 µM
- GI50 (NCI-H460): 0.375 µM
- GI50 (U-251): 0.254 µM
- GI50 (SNB-19): 1.2 µM
- GI50 (NCI-H226): 2.09 µM
- GI50 (PC-3): 1.75 µM
- GI50 (UACC-257): 2.48 µM
- GI50 (ACHN): 1.89 µM
- GI50 (OVCAR-8): 2.42 µM
- GI50 (HCT-116): 0.468 µM
- GI50 (K562): 0.225 µM
- GI50 (UACC-62): 1.55 µM
- GI50 (TK-10): 1.87 µM
- GI50 (SK-MEL-5): 1.6 µM
- GI50 (OVCAR-3): 1.7 µM
- GI50 (RPMI-8226): 0.639 µM
- GI50 (SK-MEL-2): 1.99 µM
- IC50 (WISH): 156 µM
- growth percent at 10 µM [1]: -70.3%
- GI50 (SK-MEL-28): 1.71 µM
- GI50 (NCI/ADR-RES): 1.93 µM
- GI50 (MDA-MB-468): 1.03 µM
- GI50 (T47D): 1.48 µM
- Activity (Escherichia coli): Dose-dependent effect
- GI50 (LOX IMVI): 0.155 µM
- GI50 (KM12): 0.698 µM
- GI50 (HCC 2998): 0.634 µM
- GI50 (SK-OV-3): 0.454 µM
- IC50 (WI-38): 138 µM
- GI50 (NCI-H23): 1.75 µM
- GI50 (Hs-578T): 2.05 µM
- GI50 (MOLT-4): 1.18 µM
- GI50 (MDA-MB-435): 1.52 µM
- GI50 (HOP-62): 1.69 µM
- GI50 (A549): 1.52 µM
- GI50 (HCT-15): 0.255 µM
- GI50 (SF-295): 1.38 µM
- inhibition (Homo sapiens): 19 to 36%
- GI50 (M14): 1.54 µM
- GI50 (BT-549): 2.05 µM
- GI50 (CAKI-1): 1.51 µM
- GI50 (SF-268): 1.63 µM
- GI50 (HOP-92): 1.71 µM
- GI50 (SR): 0.284 µM
- GI50 (HT-29): 0.379 µM
- GI50 (786-0): 1.31 µM
- GI50 (SF-539): 1.97 µM
- GI50 (CCRF-CEM): 1.54 µM
- inhibition [2]: 62.3%
- GI50 (HL-60(TB)): 1.07 µM
- GI50 (NCI-H522): 2.35 µM
- GI50 (MCF7): 0.193 µM
- GI50 (DU-145): 0.97 µM
- GI50 (SN12C): 1.57 µM
- GI50 (COLO 205): 0.304 µM

SMILES: CN(C)c1ccc(-c2ccc(-c3ccc(C(=N)N)c(F)c3)s2)cc1
- Activity (Escherichia coli): Dose-dependent effect
- inhibition [2]: 56.7%

SMILES: CN(C)c1ccc(-c2ccc(-c3ccc(C(=N)N)cc3)s2)cc1
- Activity (Escherichia coli): Dose-dependent effect
- inhibition [2]: 58%

SMILES: N=C(N)c1ccc(-c2ccc(-c3cccs3)s2)cc1 [4-(2,2'-BITHIOPHENE-5-YL)BENZAMIDINE]
- growth percent at 10 µM [1]: 83.9%

SMILES: COc1ccc(-c2ccc(-c3ccc(C#N)c(F)c3)s2)cc1
- inhibition [2]: 35%
